From patent publication US8697722B2 (SRI International, priority 2007, dated 2014)
Where two headings read alike, the source gives them in different places.

Tests used:
[1] = target: T1, rat α3β4 receptors (Rattus norvegicus, UniProt P04757+P12392); assay: [3H]epibatidine competition binding on membranes of HEK cells transfected with rat α3β4 receptors
T1 construct: expressed in transfected cells; host or cells: HEK cells (KXα3β4R2)

[2] = target: T2, rat α4β2 receptors (Rattus norvegicus, UniProt P09483+P12390); assay: [3H]epibatidine competition binding on membranes of HEK cells transfected with rat α4β2 receptors
T2 construct: expressed in transfected cells; host or cells: HEK cells (KXα4β2R2)

[3] = competition with 0.3 nM [3H]epibatidine, KXα3β4R2 HEK cell membranes, 3 h room temperature, read-out: Binding affinities α3β4 (Ki)
[4] = competition with 0.3 nM [3H]epibatidine, KXα4β2R2 HEK cell membranes, 3 h room temperature, read-out: Binding affinities α4β2 (Ki)
[5] = read-out: Binding affinities α3β4 (Ki)
[6] = read-out: Binding affinities α4β2 (Ki)

SMILES: O=C1Cc2ccccc2N1C1CC2CCCC(C1)N2 (stereo not shown) [SR 16832]
- Ki [1, 3]: 421 nM
- Ki [2]: > 10000 nM

SMILES: CN1C2C=C(c3cnc4ccccc4c3)CC1CCC2 (stereo not shown) [SR 17027]
- Ki [1, 3]: 2610 nM
- Ki [2, 4]: 423 nM

SMILES: C1=C(c2cnc3ccccc3c2)CC2CC1N(Cc1ccccc1)C2 (stereo not shown) [SR 17015]
- Ki [1, 3]: 2480 nM
- Ki [2, 4]: 29 nM

SMILES: CN1C2CCCC1CC(Nc1ccccc1)C2 (stereo not shown) [SR 17011]
- Ki [1, 5]: 826 nM
- Ki [2, 6]: > 10000 nM

SMILES: CN1C2C=C(c3cccnc3)CC1CCC2 (stereo not shown) [SR 17026]
- Ki [1, 5]: 240 nM
- Ki [2]: 10 nM

SMILES: CCOC(=O)N1C2C=C(c3cccnc3)CC1CCC2 (stereo not shown) [SR 17021]
- Ki [1, 5]: > 10000 nM
- Ki [2, 6]: > 10000 nM

SMILES: CN1C2CCCC1CC(N1C(=O)Cc3ccccc31)C2 (stereo not shown) [SR 16584]
- Ki [2]: > 10000 nM

SMILES: C1=C(c2cccnc2)CC2CC1CN2Cc1ccccc1 (stereo not shown) [SR 17004]
- Ki [1]: 194 nM
- Ki [2, 6]: 1.95 nM

SMILES: O=c1cccc2n1C[C@@H]1CNC[C@H]2C1 [Cytisine, reference compound]
- Ki [1, 3]: 203 nM
- Ki [2, 4]: 1.53 nM

SMILES: CN1C2CCC1CC(N1C(=O)Cc3ccccc31)C2 (stereo not shown) [SR 16583]
- Ki [1, 3]: 2790 nM
- Ki [2]: > 10000 nM
